Measured values taken from patent US20160108049A1 (TAKEDA Gmbh, priority 2011, published 2016).

Legend:
PDE4B1 = target: T1, PDE4B1 (Homo sapiens, UniProt Q07343); experiment: Inhibition of PDE4 activity (PDE4B1, SPA assay); format: biochemical; conditions: recombinant PDE4B1, 0.5 μM cAMP; read-out: PDE4B1 Inhibitory values measured as -logIC50 (converted)
T1 construct: made in house; host or cells: SF21 insect cells (baculovirus; virus made in SF9 cells, pCR-Bac vector)
Experimental: Method for Measuring Inhibition of PDE4 Activity
The PDE4B1 (GB no. L20966) was a gift of Prof. M. Conti (Stanford University, USA). It was amplified from the original plasmid (pCMV5) via PCR with primers Rb18 (5′-[…]-3′) and Rb10 (5′-[…]-3′) and cloned into the pCR-Bac vector (Invitrogen, Groningen, NL).
The recombinant baculovirus was prepared by means of homologous recombination in SF9 insect cells. The expression plasmids were cotransfected with Baculo-Gold DNA (Pharmingen, Hamburg) using a standard protocol (Pharmingen, Hamburg). Wt virus-free recombinant virus supernatants were selected using plaque assay methods. After that, high-titre virus supernatants were prepared by amplifying 3 times. PDE4B1 was expressed in SF21 cells by infecting 2×10^6 cells/ml with an MOI (multiplicity of infection) between 1 and 10 in the serum-free SF900 medium (GIBCO Life Technologies, Karlsruhe, Germany) The cells were cultured at 28° C. for 48-72 hours, after which they were pelleted for 5-10 min at 1000×g and 4° C.
The SF21 insect cells were resuspended, at a concentration of approx. 10^7 cells/ml, in ice-cold (4° C.) homogenization buffer (20 mM Tris, pH 8.2, containing the following additions: 140 mM NaCl, 3.8 mM KCl, 1 mM EGTA, 1 mM MgCl2, 10 mM β-mercaptoethanol, 2 mM benzamidine, 0.4 mM Pefablock, 10 μM leupeptin, 10 μM pepstatin A, 5 μM trypsin inhibitor) and disrupted by ultrasonication. The homogenate was then centrifuged for 10 min at 1000×g and the supernatant was stored at −80° C. until subsequent use (see below). The protein content was determined by the Bradford method (BioRad, Munich) using BSA (Bovine serum albumin) as the standard.
PDE4B1 activities were measured in a 96-well platform using SPA (scintillation proximity assay) yttrium silicate beads (RPNQ1050 from GE Healthcare). In a first step the PDE activity operated hydrolysis of either [^3H] cAMP (substrate) into […]. In a second step substrate and product were distinguished following addition of SPA yttrium silicate beads. […] Close proximity of bound [^3H] […] The test volume was 100 μl and finally contained 20 mM Tris buffer (pH 7.4), 0.1 mg/ml of BSA, 5 mM Mg^2+, 0.5 μM cAMP (including about 50,000 cpm of [3H]cAMP) as substrate, 1 μl of the respective substance dilution in DMSO and sufficient recombinant PDE (1000×g supernatant, see above) to ensure that 10-20% of the cAMP was converted under the said experimental conditions. […] After a preincubation of 5 min at 37° C., the reaction was commenced by adding the substrate (cAMP) and the assays were incubated for a further 15 min. Reactions were terminated by adding SPA beads (50 μl). In agreement with the manufacturer's instructions, the SPA beads had previously been resuspended in water, but were then diluted 1:3 (v/v) in water. This diluted solution further contained 3 mM IBMX (isobutylmethylxanthine) to ensure a complete block of PDE activity. Once the beads were sedimented (>30 min), the MTP's (micro titerplate) were analyzed in commercially available […]. The corresponding IC50 values of the compounds for inhibition of PDE4B1 activity were determined from the concentration-effect curves by means of non-linear regression.
(§1) The numbers of the compounds correspond to the numbers of the examples.

human PDE5 = target: T2, human PDE5 (Homo sapiens, UniProt O76074); experiment: Inhibition of PDE5 activity (platelet lysate, SPA assay); format: biochemical; conditions: 0.5 μM cGMP, read-out: PDE5 Inhibitory values measured as -logIC50 (converted)
T2 construct: from tissue; host or cells: human platelets from fresh donor blood (platelet lysate)
Experimental: Method for Measuring Inhibition of PDE5 Activity
As a source for human PDE5, platelets were used. For that purpose, 150 ml fresh blood from human donors anticoagulated with citrate [final concentration 0.3% (w/v)] was centrifuged at 200 g for 10 min to obtain the so-called platelet-rich-plasma (PRP) as a supernatant. […] After centrifugation (1,400 g, 10 min) the cell pellet was resuspended in 3 ml homogenization buffer (NaCl 140 mM, KCl 3.8 mM, EGTA (ethylene glycol tetraacetic acid) 1 mM, MgCl2 1 mM, Tris-HCl 20 mM, beta-mercaptoethanol 1 mM, pH 8.2) plus protease-inhibitor mix resulting in final concentrations of 0.5 mM Pefablock (Roche), 10 μM Leupeptin, 5 μM Trypsine inhibitor, 2 mM Benzamidin and 10 μM Pepstatin A. The suspension was sonicated and thereafter centrifuged for 15 min at 10,000 g. The resulting supernatant (platelet lysate) was used for enzymatic assays.
PDE5 activities were measured in a 96-well platform using SPA (scintillation proximity assay) yttrium silicate beads (RPNQ1050 from GE Healthcare). In a first step the PDE activity operated hydrolysis of either [^3H] cGMP (substrate) into [^3H] 5′GMP. In a second step substrate and product were distinguished following addition of SPA yttrium silicate beads. Indeed, in the presence of zinc sulphate the linear [^3H] […] Close proximity of bound [^3H] […] The test volume was 100 μl and contained 20 mM Tris buffer (pH 7.4), 0.1 mg of BSA (bovine serum albumin)/ml, 5 mM Mg^2+, 1 μM motapizone (PDE3 Inhibitor), 10 nM PDE2 inhibitor 2-(3,4-dimethoxybenzyl)-7-[(1R,2R)-2-hydroxy-1-(2-phenylethyl)propyl]-5-methylimidazo[5,1-f][1,2,4]triazin-4(3H)-one, 0.5 μM cGMP (cyclic guanosine monophosphate) (including about 50,000 cpm of [3H]cGMP as a tracer) (substrate), 1 μl of the respective compound dilution in dimethylsulfoxide (DMSO) and sufficient PDE5-containing platelet lysat (10,000×g supernatant, see above) to ensure that 10-20% of the cGMP was converted under the said experimental conditions. […] After a preincubation of 5 min at 37° C., the reaction was commenced by adding the substrate (cGMP) and the assay was incubated for a further 15 min. The reaction was terminated by adding SPA beads (50 μl). In agreement with the manufacturer's instructions, the SPA beads had previously been resuspended in water, but were then diluted 1:3 (v/v) in water. This diluted solution also contained 3 mM 8-methoxymethyl-3-isobutyl-1-methylxanthine (IBMX) to ensure a complete block of PDE activity. Once the beads were sedimented (>30 min), the MTP's were analyzed in commercially available luminescence detection devices. The corresponding IC50 values of the compounds for inhibition of PDE activity were determined from the concentration-effect curves by means of non-linear regression.
as §1

T1 sequence (Q07343 whole entry): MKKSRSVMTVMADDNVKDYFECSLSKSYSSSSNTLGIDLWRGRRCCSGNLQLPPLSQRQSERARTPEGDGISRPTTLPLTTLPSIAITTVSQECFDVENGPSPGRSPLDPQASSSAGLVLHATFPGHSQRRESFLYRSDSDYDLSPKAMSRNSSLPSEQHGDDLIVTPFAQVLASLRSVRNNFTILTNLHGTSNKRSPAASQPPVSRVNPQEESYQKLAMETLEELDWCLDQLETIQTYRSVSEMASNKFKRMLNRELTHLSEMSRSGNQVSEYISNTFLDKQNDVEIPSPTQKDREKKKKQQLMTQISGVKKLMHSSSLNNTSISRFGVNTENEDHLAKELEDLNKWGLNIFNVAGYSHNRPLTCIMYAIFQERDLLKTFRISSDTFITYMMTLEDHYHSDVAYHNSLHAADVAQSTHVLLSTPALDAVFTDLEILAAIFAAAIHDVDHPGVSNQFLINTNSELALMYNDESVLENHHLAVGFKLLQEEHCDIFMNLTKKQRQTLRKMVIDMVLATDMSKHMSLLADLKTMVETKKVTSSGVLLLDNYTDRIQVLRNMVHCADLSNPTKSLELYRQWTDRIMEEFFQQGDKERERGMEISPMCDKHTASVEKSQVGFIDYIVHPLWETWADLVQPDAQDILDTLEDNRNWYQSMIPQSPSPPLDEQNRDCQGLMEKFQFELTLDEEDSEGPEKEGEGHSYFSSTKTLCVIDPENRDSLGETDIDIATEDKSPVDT

SMILES: COc1ccc(C2=NN(C3CCN(C(=O)[C@H](CCC(=O)N4CCCC4)NC(=O)c4c[nH]c5c(-c6c(OCC7CC7)ccc7c6OCO7)ncnc45)CC3)C(=O)[C@@H]3CCCC[C@H]23)cc1OC [Example 102, 4-[5-(cyclopropylmethoxy)-1,3-benzodioxol-4-yl]-N-[(2S)-1-{4-[(4aS,8aR)-4-(3,4-dimethoxyphenyl)-1-oxo-4a,5,6,7,8,8a-hexahydrophthalazin-2(1H)-yl]piperidin-1-yl}-1,5-dioxo-5-(pyrrolidin-1-yl)pentan-2-yl]-5H-pyrrolo[3,2-d]pyrimidine-7-carboxamide]
- IC50 (PDE4B1): 1 to 10 nM
- IC50 (human PDE5): 1 to 10 nM

SMILES: COc1ccc(C2=NN(C3CCN(C(=O)[C@H](Cc4cccnc4)NC(=O)c4c(C)[nH]c5c(-c6c(OCC7CC7)ccc7c6OCO7)ncnc45)CC3)C(=O)[C@@H]3CCCC[C@H]23)cc1OC [Example 42, 4-[5-(cyclopropylmethoxy)-1,3-benzodioxol-4-yl]-N-[(2S)-1-{4-[(4aS,8aR)-4-(3,4-dimethoxyphenyl)-1-oxo-4a,5,6,7,8,8a-hexahydrophthalazin-2(1H)-yl]piperidin-1-yl}-1-oxo-3-(pyridin-3-yl)propan-2-yl]-6-methyl-5H-pyrrolo[3,2-d]pyrimidine-7-carboxamide]
- IC50 (PDE4B1): < 1 nM
- IC50 (human PDE5): < 1 nM

SMILES: COc1ccc(C2=NN(C3CCN(C(=O)[C@H](Cc4ccccn4)NC(=O)c4c(C)[nH]c5c(-c6c(OCC7CC7)ccc7c6OCO7)ncnc45)CC3)C(=O)[C@@H]3CCCC[C@H]23)cc1OC [Example 38, 4-[5-(cyclopropylmethoxy)-1,3-benzodioxol-4-yl]-N-[(2S)-1-{4-[(4aS,8aR)-4-(3,4-dimethoxyphenyl)-1-oxo-4a,5,6,7,8,8a-hexahydrophthalazin-2(1H)-yl]piperidin-1-yl}-1-oxo-3-(pyridin-2-yl)propan-2-yl]-6-methyl-5H-pyrrolo[3,2-d]pyrimidine-7-carboxamide]
- IC50 (PDE4B1): 1 to 10 nM
- IC50 (human PDE5): < 1 nM

SMILES: COc1ccc(C2=NN(C3CCN(C(=O)[C@H](Cc4ccc(O)cc4)NC(=O)c4c[nH]c5c(-c6c(OCC7CC7)ccc7c6OCO7)ncnc45)CC3)C(=O)[C@@H]3CCCC[C@H]23)cc1OC [Example 53, 4-[5-(cyclopropylmethoxy)-1,3-benzodioxol-4-yl]-N-[(2S)-1-{4-[(4aS,8aR)-4-(3,4-dimethoxyphenyl)-1-oxo-4a,5,6,7,8,8a-hexahydrophthalazin-2(1H)-yl]piperidin-1-yl}-3-(4-hydroxyphenyl)-1-oxopropan-2-yl]-5H-pyrrolo[3,2-d]pyrimidine-7-carboxamide]
- IC50 (PDE4B1): < 1 nM
- IC50 (human PDE5): 1 to 10 nM

SMILES: COc1ccc(C2=NN(C3CCN(C(=O)[C@@H](CC(C)C)NC(=O)c4c[nH]c5c(-c6c(OCC7CC7)ccc7c6OCO7)ncnc45)CC3)C(=O)[C@@H]3CCCC[C@H]23)cc1OC [Example 95, 4-[5-(cyclopropylmethoxy)-1,3-benzodioxol-4-yl]-N-[(2R)-1-{4-[(4aS,8aR)-4-(3,4-dimethoxyphenyl)-1-oxo-4a,5,6,7,8,8a-hexahydrophthalazin-2(1H)-yl]piperidin-1-yl}-4-methyl-1-oxopentan-2-yl]-5H-pyrrolo[3,2-d]pyrimidine-7-carboxamide]
- IC50 (PDE4B1): < 1 nM
- IC50 (human PDE5): < 1 nM

SMILES: COc1ccc(C2=NN(C3CCN(C(=O)[C@@H](C)NC(=O)c4c[nH]c5c(-c6c(OCC7CC7)ccc7c6OCO7)ncnc45)CC3)C(=O)C(C)(C)C2)cc1OC [Example 111, 4-[5-(cyclopropylmethoxy)-1,3-benzodioxol-4-yl]-N-[(2R)-1-{4-[3-(3,4-dimethoxyphenyl)-5,5-dimethyl-6-oxo-5,6-dihydropyridazin-1(4H)-yl]piperidin-1-yl}-1-oxopropan-2-yl]-5H-pyrrolo[3,2-d]pyrimidine-7-carboxamide]
- IC50 (PDE4B1): 1 to 10 nM
- IC50 (human PDE5): 1 to 10 nM

SMILES: COc1ccc(C2=NN(C3CCN(C(=O)[C@H](Cn4cccn4)NC(=O)c4c[nH]c5c(-c6c(OCC7CC7)ccc7c6OCO7)ncnc45)CC3)C(=O)[C@@H]3CCCC[C@H]23)cc1OC [Example 88, 4-[5-(cyclopropylmethoxy)-1,3-benzodioxol-4-yl]-N-[(2S)-1-{4-[(4aS,8aR)-4-(3,4-dimethoxyphenyl)-1-oxo-4a,5,6,7,8,8a-hexahydrophthalazin-2(1H)-yl]piperidin-1-yl}-1-oxo-3-(1H-pyrazol-1-yl)propan-2-yl]-5H-pyrrolo[3,2-d]pyrimidine-7-carboxamide]
- IC50 (PDE4B1): 1 to 10 nM
- IC50 (human PDE5): 1 to 10 nM

SMILES: COc1ccc(C2=NN(C3CCN(C(=O)[C@@H](Cc4ccc(C(F)(F)F)cc4)NC(=O)c4c[nH]c5c(-c6c(OCC7CC7)ccc7c6OCO7)ncnc45)CC3)C(=O)[C@@H]3CCCC[C@H]23)cc1OC [Example 49, 4-[5-(cyclopropylmethoxy)-1,3-benzodioxol-4-yl]-N-{(2R)-1-{4-[(4aS,8aR)-4-(3,4-dimethoxyphenyl)-1-oxo-4a,5,6,7,8,8a-hexahydrophthalazin-2(1H)-yl]piperidin-1-yl}-1-oxo-3-[4-(trifluoromethyl)phenyl]propan-2-yl}-5H-pyrrolo[3,2-d]pyrimidine-7-carboxamide]
- IC50 (PDE4B1): 1 to 10 nM
- IC50 (human PDE5): 1 to 10 nM

SMILES: COc1ccc(C2=NN(C3CCN(C(=O)[C@@H](Cc4ccccc4)NC(=O)c4c[nH]c5c(-c6c(OCC7CC7)ccc7c6OCO7)ncnc45)CC3)C(=O)C(C)(C)C2)cc1OC [Example 67, 4-[5-(cyclopropylmethoxy)-1,3-benzodioxol-4-yl]-N-[(2R)-1-{4-[3-(3,4-dimethoxyphenyl)-5,5-dimethyl-6-oxo-5,6-dihydropyridazin-1(4H)-yl]piperidin-1-yl}-1-oxo-3-phenylpropan-2-yl]-5H-pyrrolo[3,2-d]pyrimidine-7-carboxamide]
- IC50 (PDE4B1): < 1 nM
- IC50 (human PDE5): 1 to 10 nM
